Measurements as given in ChEMBL document CHEMBL1201862, “PubChem BioAssay data set” (2004).
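Interpolation was linear, between the two tested concentrations surrounding the appropriate level; five concentrations were tested over 48 hours in 96-well plates. GI50 = concentration required for 50% inhibition of growth.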 The source made the active and inactive calls. No stated cut-off is given here; in the data, active = GI50 up to about 1.1 µM and inactive = higher.

Experiments:
Assay in all cases: DTP human tumour cell line panel, 48 h
786-0 = test system: 786-0
A549 = test system: A549
ACHN = test system: ACHN
CCRF-CEM = test system: CCRF-CEM
COLO 205 = test system: COLO 205
DLD-1 = test system: DLD-1
DMS-114 = test system: DMS-114
DMS-273 = test system: DMS-273
EKVX = test system: EKVX
HCC 2998 = test system: HCC 2998
HCT-116 = test system: HCT-116
HCT-15 = test system: HCT-15
HL-60 = test system: HL-60
HOP-62 = test system: HOP-62
HT-29 = test system: HT-29
K562 = test system: K562
KM-20L2 = test system: KM-20L2
KM12 = test system: KM12
LOX IMVI = test system: LOX IMVI
LXFL 529 = test system: LXFL 529
M14 = test system: M14
M19-MEL = test system: M19-MEL
MOLT-4 = test system: MOLT-4
Malme-3M = test system: Malme-3M
NCI-H23 = test system: NCI-H23
NCI-H460 = test system: NCI-H460
NCI-H522 = test system: NCI-H522
OVCAR-3 = test system: OVCAR-3
OVCAR-8 = test system: OVCAR-8
RPMI-8226 = test system: RPMI-8226
RXF 393 = test system: RXF 393
SF-268 = test system: SF-268
SF-295 = test system: SF-295
SF-539 = test system: SF-539
SK-MEL-28 = test system: SK-MEL-28
SK-OV-3 = test system: SK-OV-3
SN12C = test system: SN12C
SNB-19 = test system: SNB-19
SNB-75 = test system: SNB-75
SNB-78 = test system: SNB-78
SR = test system: SR
SW-620 = test system: SW-620
TK-10 = test system: TK-10
U-251 = test system: U-251
UACC-257 = test system: UACC-257
UACC-62 = test system: UACC-62
UO-31 = test system: UO-31
A498 = test system: A498
CAKI-1 = test system: CAKI-1
HOP-92 = test system: HOP-92
IGROV-1 = test system: IGROV-1
NCI-H226 = test system: NCI-H226
OVCAR-4 = test system: OVCAR-4
OVCAR-5 = test system: OVCAR-5
SK-MEL-2 = test system: SK-MEL-2
SK-MEL-5 = test system: SK-MEL-5
XF498 = test system: XF498

SMILES: COc1cc(-c2cc(O)c3ccccc3n2)cc(OC)c1OC
- GI50 (786-0): > 75 µM (inactive)
- GI50 (A549): > 75 µM (inactive)
- GI50 (ACHN): > 75 µM (inactive)
- GI50 (CCRF-CEM): > 75 µM (inactive)
- GI50 (COLO 205): > 75 µM (inactive)
- GI50 (DLD-1): > 75 µM (inactive)
- GI50 (DMS-114): > 75 µM (inactive)
- GI50 (DMS-273): > 75 µM (inactive)
- GI50 (EKVX): > 75 µM (inactive)
- GI50 (HCC 2998): > 75 µM (inactive)
- GI50 (HCT-116): > 75 µM (inactive)
- GI50 (HCT-15): > 75 µM
- GI50 (HL-60): > 7.5 µM (inactive)
- GI50 (HOP-62): > 75 µM (inactive)
- GI50 (HT-29): > 75 µM (inactive)
- GI50 (K562): > 75 µM (inactive)
- GI50 (KM-20L2): > 75 µM (inactive)
- GI50 (KM12): > 75 µM (inactive)
- GI50 (LOX IMVI): > 75 µM (inactive)
- GI50 (LXFL 529): > 75 µM (inactive)
- GI50 (M14): > 75 µM (inactive)
- GI50 (M19-MEL): > 75 µM (inactive)
- GI50 (MOLT-4): > 75 µM (inactive)
- GI50 (Malme-3M): > 75 µM (inactive)
- GI50 (NCI-H23): > 75 µM (inactive)
- GI50 (NCI-H460): > 75 µM (inactive)
- GI50 (NCI-H522): > 75 µM (inactive)
- GI50 (OVCAR-3): > 75 µM (inactive)
- GI50 (OVCAR-8): > 75 µM (inactive)
- GI50 (RPMI-8226): > 75 µM (inactive)
- GI50 (RXF 393): > 75 µM (inactive)
- GI50 (SF-268): > 75 µM (inactive)
- GI50 (SF-295): > 75 µM (inactive)
- GI50 (SF-539): > 75 µM (inactive)
- GI50 (SK-MEL-28): > 75 µM (inactive)
- GI50 (SK-OV-3): > 75 µM (inactive)
- GI50 (SN12C): > 75 µM (inactive)
- GI50 (SNB-19): > 75 µM (inactive)
- GI50 (SNB-75): 50.5 µM (inactive)
- GI50 (SNB-78): > 75 µM (inactive)
- GI50 (SR): > 75 µM (inactive)
- GI50 (SW-620): > 75 µM (inactive)
- GI50 (TK-10): > 75 µM (inactive)
- GI50 (U-251): > 75 µM (inactive)
- GI50 (UACC-257): > 75 µM (inactive)
- GI50 (UACC-62): > 75 µM (inactive)
- GI50 (UO-31): 51.3 µM (inactive)

SMILES: CCOC(=O)/C(=C/c1ccc(OC)cc1)N(CC)CC
- GI50 (786-0): > 100 µM (inactive)
- GI50 (A498): 24.5 µM (inactive)
- GI50 (A549): > 100 µM (inactive)
- GI50 (ACHN): > 100 µM (inactive)
- GI50 (CAKI-1): > 100 µM (inactive)
- GI50 (CCRF-CEM): > 100 µM (inactive)
- GI50 (COLO 205): > 100 µM (inactive)
- GI50 (DMS-114): > 100 µM (inactive)
- GI50 (DMS-273): > 100 µM (inactive)
- GI50 (EKVX): > 100 µM (inactive)
- GI50 (HCC 2998): > 100 µM (inactive)
- GI50 (HCT-116): > 100 µM (inactive)
- GI50 (HCT-15): > 100 µM
- GI50 (HL-60): 52.1 µM (inactive)
- GI50 (HOP-62): > 100 µM (inactive)
- GI50 (HOP-92): > 100 µM (inactive)
- GI50 (HT-29): > 100 µM (inactive)
- GI50 (IGROV-1): > 100 µM (inactive)
- GI50 (K562): > 100 µM (inactive)
- GI50 (KM-20L2): > 100 µM (inactive)
- GI50 (KM12): > 100 µM (inactive)
- GI50 (LOX IMVI): > 100 µM (inactive)
- GI50 (LXFL 529): > 100 µM (inactive)
- GI50 (M14): > 100 µM (inactive)
- GI50 (M19-MEL): > 100 µM (inactive)
- GI50 (MOLT-4): > 100 µM (inactive)
- GI50 (Malme-3M): > 100 µM (inactive)
- GI50 (NCI-H226): > 100 µM (inactive)
- GI50 (NCI-H23): > 100 µM (inactive)
- GI50 (NCI-H460): > 100 µM (inactive)
- GI50 (NCI-H522): > 100 µM (inactive)
- GI50 (OVCAR-3): > 100 µM (inactive)
- GI50 (OVCAR-4): > 100 µM (inactive)
- GI50 (OVCAR-5): > 100 µM (inactive)
- GI50 (OVCAR-8): > 100 µM (inactive)
- GI50 (RPMI-8226): > 100 µM (inactive)
- GI50 (SF-268): > 100 µM (inactive)
- GI50 (SF-295): > 100 µM (inactive)
- GI50 (SF-539): > 100 µM (inactive)
- GI50 (SK-MEL-28): > 100 µM (inactive)
- GI50 (SK-MEL-2): > 100 µM (inactive)
- GI50 (SK-MEL-5): > 100 µM (inactive)
- GI50 (SK-OV-3): > 100 µM (inactive)
- GI50 (SN12C): > 100 µM (inactive)
- GI50 (SNB-19): > 100 µM (inactive)
- GI50 (SNB-78): 34.5 µM (inactive)
- GI50 (SR): > 100 µM (inactive)
- GI50 (SW-620): > 100 µM (inactive)
- GI50 (TK-10): > 100 µM (inactive)
- GI50 (U-251): > 100 µM (inactive)
- GI50 (UACC-257): > 100 µM (inactive)
- GI50 (UACC-62): > 100 µM (inactive)
- GI50 (UO-31): > 100 µM (inactive)
- GI50 (XF498): > 100 µM (inactive)
